# From BindingDB's records for doi:10.1016/j.ejmech.2022.114789 (Sichuan University, 2022)
# Biological target: T1, Catenin beta-1 (Homo sapiens, UniProt P35222)
# T1 sequence (P35222 whole entry): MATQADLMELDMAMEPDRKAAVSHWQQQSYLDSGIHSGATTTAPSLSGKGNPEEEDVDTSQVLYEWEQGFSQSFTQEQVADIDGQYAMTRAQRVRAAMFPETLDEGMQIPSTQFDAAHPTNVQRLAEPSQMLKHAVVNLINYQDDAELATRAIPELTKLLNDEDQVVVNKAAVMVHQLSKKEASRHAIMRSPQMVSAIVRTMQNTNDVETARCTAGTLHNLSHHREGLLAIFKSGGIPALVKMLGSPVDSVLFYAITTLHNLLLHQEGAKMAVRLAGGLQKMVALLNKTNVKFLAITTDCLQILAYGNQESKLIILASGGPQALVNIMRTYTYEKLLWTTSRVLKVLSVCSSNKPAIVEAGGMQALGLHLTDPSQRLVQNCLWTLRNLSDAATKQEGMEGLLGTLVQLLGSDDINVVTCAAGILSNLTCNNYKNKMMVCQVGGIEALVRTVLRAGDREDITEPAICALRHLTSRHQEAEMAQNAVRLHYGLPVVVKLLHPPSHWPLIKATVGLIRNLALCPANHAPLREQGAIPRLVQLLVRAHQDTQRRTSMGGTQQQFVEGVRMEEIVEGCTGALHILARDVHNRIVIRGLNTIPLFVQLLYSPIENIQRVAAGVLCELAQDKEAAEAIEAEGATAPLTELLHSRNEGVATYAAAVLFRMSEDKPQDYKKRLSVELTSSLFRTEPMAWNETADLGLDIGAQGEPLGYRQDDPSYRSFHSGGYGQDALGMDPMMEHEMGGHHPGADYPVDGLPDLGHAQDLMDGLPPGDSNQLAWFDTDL
# Assay: Inhibition of His6-tagged human beta-Catenin (138 to 686 residues)/biotinylated human BCL9 (350 to 375 residues) protein-protein interaction assessed as inhibition constant by AlphaScreen competitive assay
smiles,measurement,value
O=C(Nc1ccc(O[C@H]2CCNC2)c(-c2ccc(F)cc2)c1)c1ccc(O[C@H]2CCNC2)c(-c2ccc(F)c(F)c2)c1,Ki,2100 nM
